From patent US9221876B2, “Methods for treating kidney disease with fragments of ApoB-100” (Cedars-Sinai Medical Center, priority 2011, dated 2015)
“Also recorded” adds a separate entry of the source. No end group written: not given here.

Columns and labels:
Assay type in all cases: in vivo, apoE (−/−) male mice
PAI-1 = PAI-1 mRNA expression in kidney; conditions: p210/cBSA/Alum+AngII vs cBSA/Alum+AngII and PBS+AngII; N=5 each; p<0.05
Description: (§1) (Left): PAI-1. N=5 each, (Right): TGF-β. N=9 each. *p<0.05 vs. p210. p210: immunized with p210/cBSA/Alum+AngII; cBSA: immunized with cBSA/Alum+AngII; PBS: immunized with PBS+AngII.
(§2) The inventors assessed the effect of p210 immunization on AngII-induced renal inflammatory responses in apoE (−/−) male mice. For the experiments described herein, native p210 peptide (KTTKQ SFDLS VKAQY KKNKH) was conjugated to cationic bovine serum albumin (cBSA) as carrier. Alum was used as an adjuvant. At 7, 10, and 12 weeks of age, male apoE (−/−) mice were subcutaneously injected with 100 μg of p210/cBSA/Alum. As immunization controls, 100 μg of cBSA/Alum, or PBS were injected. At 10 weeks of age after first immunization booster, 1000 ng/Kg/min of AngII was delivered by subcutaneously implanted osmotic pump for 4 weeks (FIG. 1A).
(§3) At euthanasia, kidney was harvested for quantitative PCR analysis or histological analysis. Data are presented as mean±SEM. Data were analyzed by ANOVA following post-hoc test for multiple group comparison.
(§4) These anti-hypertensive and renal protective effects are associated with significant reduction of inflammatory cytokines and chemokine gene expression, ROS production mediated by NADPH oxidase, and profibrotic gene expression in kidney. […]

TGF-β = TGF-β mRNA expression in kidney; conditions: p210/cBSA/Alum+AngII vs cBSA/Alum+AngII and PBS+AngII; N=9 each; p<0.05
Description: as §1, §2, §3, §4

[1] = Serum creatinine level (indicator of renal function), creatinine assay kit, AngII-induced renal damage
Description: as §2
Serum creatinine (Cr.) (an indicator of renal function) level at 14 weeks of age was assessed by commercially available creatinine assay kit following the manufacture's instruction. […] N: p210=12, cBSA=11, PBS=9.

[2] = system: glomerular ROS production; experiment: Glomerular ROS (superoxide) production, in situ dihydroethidium (DHE) labeling of frozen kidney sections; conditions: p210/cBSA/Alum+AngII vs cBSA/Alum+AngII and PBS+AngII; N=4 each; p<0.05
Description: (A) Representative figure of in situ DHE labeling. (B) Densitometric analysis of DHE fluorescence. *p<0.05 vs. p210. N=4 each. p210: immunized with p210/cBSA/Alum+AngII; cBSA: immunized with cBSA/Alum+AngII; PBS: immunized with PBS+AngII.
as §2
Superoxide production in kidney was measured by in situ dihydroethidium (DHE) methods with freshly cut frozen sections.

[3] = system: Angiotensin II type 1 receptor (AT1R); experiment: AT1R expression in aorta, Western blot with densitometric analysis, after p210 immunization and AngII infusion; conditions: 100 μg p210/cBSA/Alum s.c. at 7, 10, 12 weeks of age; AngII 1000 ng/Kg/min by osmotic pump for 4 weeks; vs cBSA/Alum and PBS; N=6 each
Description: N=6 in each group. p210: immunized with p210/cBSA/Alum+AngII; cBSA: immunized with cBSA/Alum+AngII; PBS: immunized with PBS+AngII.
as §2

IL-6 = IL-6 mRNA expression in kidney, quantitative PCR; conditions: p210/cBSA/Alum+AngII vs cBSA/Alum+AngII and PBS+AngII; N=8 each; p<0.05
Description: as §2, §3

TNF-α = TNF-α mRNA expression in kidney, quantitative PCR; conditions: p210/cBSA/Alum+AngII vs cBSA/Alum+AngII and PBS+AngII; N=10 each; p<0.05
Description: as §2, §3

[4] = system: NOX1, a component of NADPH oxidase; experiment: NOX1 expression in kidney; conditions: p210/cBSA/Alum+AngII vs cBSA/Alum+AngII and PBS+AngII; N=8 each; p<0.05
Description: as §1, §2, §3, §4

MCP-1 = MCP-1 mRNA expression in kidney, quantitative PCR; conditions: p210/cBSA/Alum+AngII vs cBSA/Alum+AngII and PBS+AngII; N=8 each; p<0.05
Description: as §2, §3

In the case of “KTTKQ SFDLS VKAQY KKNKH (KTTKQSFDLSVKAQYKKNKH; also: conjugated to cationic BSA carrier) [Peptide P210, amino acids 3136-3155 of human ApoB-100; tested conjugated to cationic bovine serum albumin (cBSA) as carrier, Alum as adjuvant]”, the “PAI-1 mRNA expression in kidney” value (PAI-1) is reported as “significantly downregulated; also recorded: significantly reduced”, the “TGF-β mRNA expression in kidney” value (TGF-β) is reported as “significantly downregulated; also recorded: significantly reduced” and the “Serum Cr.” value ([1]; at 14 weeks of age, 100 μg p210/cBSA/Alum s.c. at 7, 10, 12 weeks, AngII infusion 4 weeks, mean±SEM, N p210=12) is reported as 0.6 ± 0.1 mg/dL. For the same substance, the “Serum creatinine level vs cBSA and PBS groups” value ([1]; at 14 weeks of age, p<0.05) was “significantly lower”, the AngII-induced renal damage ([1]; p210 immunization, AngII infusion 4 weeks) was “protected against AngII-induced renal damage; also recorded: significantly attenuated” and the “glomerular ROS production (DHE fluorescence)” value [2] was “significantly reduced”. The “expression of Angiotensin II type 1 receptor (AT1R) in aorta” value [3] was “significantly decreased”, the “IL-6 mRNA expression in kidney” value (IL-6) was “down-regulated; also recorded: significantly reduced” and the “TNF-α mRNA expression in kidney” value (TNF-α) was “down-regulated; also recorded: significantly reduced”. For the same substance, the “NOX1 expression in kidney” value [4] was “significantly reduced” and the “MCP-1 mRNA expression in kidney” value (MCP-1) was “down-regulated; also recorded: significantly reduced”.
